Test results reported in ChEMBL document CHEMBL3784951, “Discovery of (3-(4-(2-Oxa-6-azaspiro[3.3]heptan-6-ylmethyl)phenoxy)azetidin-1-yl)(5-(4-methoxyphenyl)-1,3,4-oxadiazol-2-yl)methanone (AZD1979), a Melanin Concentrating Hormone Receptor 1 (MCHr1) Antagonist with Favorable Physicochemical Properties” (J Med Chem, 2016).
≈ marks a conversion by molar mass, not a printed value.

Key:
[1] = physchem; details: buffer, pH 7.4
[2] = physchem
[3] = in vitro; details: human, microsomes
[4] = in vitro; details: human, Caco-2
[5] = organism: Mus musculus; test: animal or person; details: C57BL/6J
[6] = physchem; details: pH 7.4
[7] = in vitro; details: human, Caco-2; remark: listed apart in the source
[8] = in vitro; details: rat, microsomes
[9] = organism: Mus musculus; test: animal or person; details: C57BL/6J; remark: listed apart in the source

| SMILES | logD [1] | pKa [2] | microsomal CLint [3] [µL/min/mg] | Papp A→B [4] [×10⁻⁶ cm/s] | IC50 [5] [nM] | solubility [6] [µM] | efflux ratio [7] | microsomal CLint [8] [µL/min/mg] | IC50 [9] [nM] |
| --- | --- | --- | --- | --- | --- | --- | --- | --- | --- |
| CN(Cc1ccc(OC2CN(C(=O)c3nnc(-c4ccccc4)o3)C2)cc1)CC1(C)COC1 | 4 | 8.5 | 117 |  |  |  |  |  |  |
| COc1ccc(-c2nnc(C(=O)N3CC(Oc4ccc(CN5CCOCC5)c(OC)c4)C3)o2)cc1 | 3.3 | 7.5 | 332 | 51 |  |  |  |  |  |
| O=C(c1nnc(-c2ccccc2)o1)N1CCC(Oc2ccc(CN3CCCC3)cc2)CC1 | 2.2 |  |  | 55 |  | > 100 |  |  |  |
| O=C(c1nnc(-c2ccc(OC(F)F)cc2)o1)N1CCC(Oc2ccc(CN3CCCC3)cc2)CC1 | 2.9 |  | 15 | 50 |  |  |  |  |  |
| COc1ccc(-c2nnc(C(=O)N3CC(Oc4ccc(CN(C)C)c(F)c4)C3)o2)cc1 | 2.2 | 8.6 | 42 | 62 |  |  | 0.32 | 218 | 9 |
| O=C(c1nnc(-c2ccccc2)o1)N1CC(Oc2ccc(CN3CC4(COC4)C3)cc2)C1 | 1.8 |  |  | 79 |  |  |  |  | 15 |
| O=C(c1cc(-c2ccccc2)on1)N1CCC(Oc2ccc(CN3CCCC3)cc2)CC1 | 3 |  |  |  |  | 198 (≈ 85.4 µg/mL) |  |  |  |
| O=C(c1nnc(-c2ccccc2)o1)N1CC(Oc2ccc(CN3CC4(CCOC4)C3)cc2)C1 | 2.1 | 8.6 | 2 |  |  |  |  |  |  |
| COc1ccc(-c2nnc(C(=O)N3CC(Oc4ccc(CN5CC6(CCOC6)C5)cc4)C3)o2)cc1 | 2.2 | 8.6 | 14 | 60 |  |  |  |  | 2 |
| O=C(c1nnc(-c2ccc(Cl)cc2)o1)N1CCC(Oc2ccc(CN3CCCC3)cc2)CC1 |  |  | 13 | 43 |  | 70 (≈ 32.7 µg/mL) |  | 17 |  |
| COc1ccc(-c2nnc(C(=O)N3CC(Oc4ccc(CN5CC(OC)C5)cc4)C3)o2)cc1 | 2.3 | 8.5 | 51 |  |  |  |  |  |  |
| CC1(O)CCN(Cc2ccc(OC3CN(C(=O)c4nnc(-c5ccccc5)o4)C3)cc2)C1 (stereo not given) | 1.45 | 9 |  | 34 |  |  | 0.26 |  | 146 |
| COc1ccc(-c2nnc(C(=O)N3CCC(Oc4ccc(CN5CCN(C)CC5)cc4)CC3)o2)cc1 | 2.5 | 8.5 |  | 56 |  |  |  |  |  |
| COc1ccc(-c2nnc(C(=O)N3CC(Oc4ccc(CN5CC6(CCCO6)C5)cc4)C3)o2)cc1 | 2.7 | 8.4 | 29 | 41 |  |  |  |  | 2 |
| COc1ccc(-c2nnc(C(=O)N3CC(Oc4ccc(CN(C)CC5(C)COC5)cc4)C3)o2)cc1 | 4.1 | 8 | 110 |  |  |  |  |  |  |
| COc1ccc(-c2nnc(C(=O)N3CC(Oc4ccc(CN(C)C)cn4)C3)o2)cc1 | 1.8 | 8.5 | 13 |  |  |  |  | 145 |  |
| Cc1oc(-c2ccccc2)nc1C(=O)N1CCC(Oc2ccc(CN3CCCC3)cc2)CC1 | 3 |  |  |  |  | 754 (≈ 336 µg/mL) |  |  |  |
| COc1ccc(-c2nnc(C(=O)N3CC(Oc4ccc(CN5CCC(C)(O)C5)cc4)C3)o2)cc1 (stereo not given) | 1.6 | 9 | 2.8 | 42 |  |  |  |  | 35 |

Next, values leading:

| logD [1] | pKa [2] | microsomal CLint [3] [µL/min/mg] | Papp A→B [4] [×10⁻⁶ cm/s] | IC50 [5] [nM] | solubility [6] [µM] | efflux ratio [7] | microsomal CLint [8] [µL/min/mg] | IC50 [9] [nM] | SMILES |
| --- | --- | --- | --- | --- | --- | --- | --- | --- | --- |
| 2.6 | 8.9 | 19 | 34 | 91 |  |  |  |  | COc1ccc(-c2nnc(C(=O)N3CCC(Oc4ccc(CN5CC(O)C(C)(C)C5)cc4)CC3)o2)cc1 (stereo not given) |
| 2.2 | 8.4 | 36 | 46 |  |  | 0.35 |  |  | COc1ccc(-c2nnc(C(=O)N3CC(Oc4ccc(CN5CCN(C)CC5)c(F)c4)C3)o2)cc1 |
| 2.4 | 8.1 | 37 | 51 |  |  |  |  |  | COc1ccc(-c2nnc(C(=O)N3CC(Oc4ccc(CN5CCCOCC5)cc4)C3)o2)cc1 |
| 3.9 |  | 74 |  |  |  |  |  |  | COc1ccc(-c2nnc(C(=O)N3CC(Oc4ccc(CN5CCCC56COC6)cc4)C3)o2)cc1 |
| 2.4 |  |  | 52 |  | > 100 |  |  |  | O=C(c1nnc(-c2ccc(F)cc2)o1)N1CCC(Oc2ccc(CN3CCCC3)cc2)CC1 |
| 2.1 | 8.4 | 20 | 46 |  |  | 0.35 |  |  | CN1CCN(Cc2ccc(OC3CN(C(=O)c4nnc(-c5ccccc5)o4)C3)cc2F)CC1 |
| 2 | 9.3 | 22 | 54 |  |  | 0.3 | 149 | 1 | COc1ccc(-c2nnc(C(=O)N3CC(Oc4ccc(CN(C)C)c(C)c4)C3)o2)cc1 |
| 1.8 | 9.1 |  | 31 |  |  |  |  |  | COc1ccc(-c2nnc(C(=O)N3CCC(Oc4ccc(CN5CCCC5)nc4)CC3)o2)cc1 |
| 2.3 | 9.2 | 24 | 49 |  |  |  | 28 |  | COc1ccc(-c2nnc(C(=O)N3CCC(Oc4ccc(CN5CCCC5)cn4)CC3)o2)cc1 |
| 1.55 | 8.9 | 17 | 67 |  |  |  | 53 | 14 | COc1ccc(-c2nnc(C(=O)N3CC(Oc4ccc(CN(C)C)cc4)C3)o2)cc1 |
| 2.6 | 8.4 | 6 |  |  |  |  |  |  | O=C(c1nnc(-c2ccccc2)o1)N1CC(Oc2ccc(CN3CC4(CCCO4)C3)cc2)C1 |
| 2 | 8.9 |  | 36 | 293 |  |  |  |  | COc1ccc(-c2nnc(C(=O)N3CCC(Oc4ccc(CN5CCC(O)C5)cc4)CC3)o2)cc1 (stereo not given) |
| 2.7 |  | 13 | 59 |  |  |  |  |  | O=C(c1nnc(-c2ccccc2Cl)o1)N1CCC(Oc2ccc(CN3CCCC3)cc2)CC1 |
| 2.2 |  | 7 |  |  | 930 (≈ 413 µg/mL) |  |  |  | Cn1nc(C(=O)N2CCC(Oc3ccc(CN4CCCC4)cc3)CC2)cc1-c1ccccc1 |
